These are literature values, as cited in PMC6008465 (British Journal of Cancer, 2018).

The subject of the data set is patients. On the set-up: method as in Mekinist (trametinib) tablets package insert, Novartis 2017. To be noted: oral; ref Mekinist (trametinib) tablets package insert, Novartis 2017; cited from earlier work.

As for `CC(=O)Nc1cccc(-n2c(=O)n(C3CC3)c(=O)c3c(Nc4ccc(I)cc4F)n(C)c(=O)c(C)c32)c1` [trametinib], the “Adverse events associated in clinical trials” value was “retinal pigment epithelial detachment, retinal vein occlusion, interstitial lung disease, skin toxicity, and cardiomyopathy”.
